This is an account of results in BindingDB's records for patent US10143681 (Merck Sharp & Dohme, 2018).

In the test the target is Plasma kallikrein (Homo sapiens, UniProt P03952). Kind of test: Kallikrein Assay. As to the method: The effectiveness of a compound of the present invention as an inhibitor of Kallikrein can be determined using a relevant purified serine protease, and an appropriate synthetic substrate. The rate of hydrolysis of the chromogenic or fluorogenic substrate by the relevant serine protease was measured both in the absence and presence of compounds of the present invention. Assays were conducted at room temperature or at 37° C. […] A decrease in the rate of fluorescence change in the presence of inhibitor is indicative of enzyme inhibition. Such methods are known to one skilled in the art. […] Times required to achieve equilibration between enzyme and inhibitor were determined in control experiments. […] IC50 was determined by inflection point from a four parameter logistic curve fit. Ki was calculated using the Cheng Prusoff equation, Ki=IC50/(1+([S]/Km)).
Sequence of Plasma kallikrein (P03952 20-390 limits assumed): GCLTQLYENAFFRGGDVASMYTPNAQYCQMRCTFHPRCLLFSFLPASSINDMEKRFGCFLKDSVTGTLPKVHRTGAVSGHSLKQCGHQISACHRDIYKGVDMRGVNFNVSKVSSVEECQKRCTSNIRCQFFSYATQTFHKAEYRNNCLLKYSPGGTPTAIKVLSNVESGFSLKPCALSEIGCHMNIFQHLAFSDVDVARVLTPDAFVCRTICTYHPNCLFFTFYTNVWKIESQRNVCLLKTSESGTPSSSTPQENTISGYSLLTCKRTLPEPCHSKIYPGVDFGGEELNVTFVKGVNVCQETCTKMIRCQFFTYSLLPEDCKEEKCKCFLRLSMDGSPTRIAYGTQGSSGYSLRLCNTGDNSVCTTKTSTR
Sequence of Plasma kallikrein (P03952 391-638 limits assumed): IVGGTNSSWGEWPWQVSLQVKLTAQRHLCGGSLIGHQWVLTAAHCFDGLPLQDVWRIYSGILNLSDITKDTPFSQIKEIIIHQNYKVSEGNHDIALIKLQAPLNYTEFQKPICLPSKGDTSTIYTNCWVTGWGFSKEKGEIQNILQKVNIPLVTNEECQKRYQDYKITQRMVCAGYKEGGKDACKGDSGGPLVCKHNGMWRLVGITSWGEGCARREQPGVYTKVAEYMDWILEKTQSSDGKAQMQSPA

In the case of `COc1cc([C@@H](CC2CC2)C(=O)Nc2ccc(C(=O)O)cc2)[n+]([O-])cc1-c1c(C(F)F)ccc(Cl)c1F` [US10143681, Example 69], it took 42 nM to reach half-maximal inhibition (IC50).
